The values that follow come from patent US12048680B2, “Use of Gemfibrozil and derivative thereof for treatment and/or prevention of neurodegenerative disease” (Kunming Institute of Zoology Chinese Academy of Sciences, priority 2018, dated 2024).

In this assay the test system is insoluble Aβ. The experiment in a line: ELISA of insoluble Aβ in mouse brain tissue. The format is in vivo. Particulars: hippocampus and cortex tissues, vs control group (C in FIG. 4). The procedure:
Gemfibrozil was administered to 8-month-old APP/PS1ΔE9 mice (male and female halves). Gemfibrozil was first dissolved in dimethyl sulfoxide (DMSO) at a concentration of 50 mg/mL, and then diluted to a final concentration of 50 μg/mL with mouse drinking water to obtain a drug solution. The mice in the administration group were allowed to freely drink the drug solution containing gemfibrozil, in which the final concentration of DMSO in the solution was 0.1%; and the mice in the control group were allowed to drink water containing 0.1% DMSO freely. All drinking devices contained with Gemfibrozil were wrapped in aluminum foil to prevent decomposition by exposure. During dosing, the drug solution was replaced every 2 days. Mice were measured daily for water consumption. After 2 months of dosing, all mice were subjected to behavioural experiments. Mice were placed in the laboratory to be behaviourally tested one hour prior to the start of daily behavioural studies, and all behavioural experiments were completed between 9 and 17 o'clock. All experiments involving animals were approved by Animal Ethics Committee of the Kunming Institute of Zoology, CAS. 8. Content of insoluble Aβ in mouse brain tissue by ELISA The content of insoluble Aβ in brain tissue was detected by an ELISA kit (Elabscience), and the experiment was performed according to the instructions of the ELISA kit.
For orientation: In an ELISA, binding on a coated surface is turned into a signal by an enzyme label.

For the molecule `Cc1ccc(C)c(OCCCC(C)(C)C(=O)O)c1` [Gemfibrozil, 2,2-dimethyl-5-(2,5-dimethylphenoxy) pentanoic acid], the “amount of insoluble Aβ40” value is on record as “significantly reduced”; the “amount of insoluble Aβ42” value is “significantly reduced”; the “ratio of insoluble Aβ42 and Aβ40” value was “did not change significantly”.
